Earlier results in US9145409B2, “Benzhydryl derivatives” (CHIESI FARMACEUTICI S.p.A., priority 2013, dated 2015).

Experiments:
[1] = test system: smoking model of COPD in mice
[2] = COPD patients, oral, given over 4 weeks
[3] = clinical trials, 500 mg once daily given over 12 months
[4] = patients with severe disease, frequent exacerbations and mucus hypersecretion

**Q.** Which results are given for `O=C(Nc1c(Cl)cncc1Cl)c1ccc(OC(F)F)c(OCC2CC2)c1` [roflumilast]?
**A.** CXCL8 concentrations in sputum (COPD patients; [2]): significantly reduces; reduction of the numbers of neutrophils in sputum (COPD patients; [2]): 36%; clinical benefit as add-on (COPD patients; added to salmeterol or tiotropium): provides clinical benefit; exacerbations and quality of life (COPD patients; [3]): little effect in reducing exacerbations or improving quality of life; lung function (COPD patients; [3]): improved lung function in COPD patients to a small extent; improvement of FEV 1 (COPD patients; [4]): approximately 50 mL; reduction of exacerbation (COPD patients; [4]): about 15%; lung inflammation and emphysema [1]: inhibits lung inflammation and emphysema
